Consider 24 compounds from US5120751A, “Benzoylphenyl pyridinylthiazolidine compounds as platelet activating antagonists” (Abbott Laboratories, priority 1991, dated 1992).

Structures can show the parent of a compound that is named as a salt.

This test deals with PAF receptor (Oryctolagus cuniculus, UniProt G1TEI7). Kind of test: PAF receptor binding assay: inhibition of specific [3H]C18-PAF binding to rabbit platelet membranes. The settings on record: 0.6 nM [3H]C18-PAF, 60 minutes at 22-23 °C, pH 7.0, Ki calculated from IC50 (Cheng and Prusoff).
PAF receptor, sequence (G1TEI7 1-342): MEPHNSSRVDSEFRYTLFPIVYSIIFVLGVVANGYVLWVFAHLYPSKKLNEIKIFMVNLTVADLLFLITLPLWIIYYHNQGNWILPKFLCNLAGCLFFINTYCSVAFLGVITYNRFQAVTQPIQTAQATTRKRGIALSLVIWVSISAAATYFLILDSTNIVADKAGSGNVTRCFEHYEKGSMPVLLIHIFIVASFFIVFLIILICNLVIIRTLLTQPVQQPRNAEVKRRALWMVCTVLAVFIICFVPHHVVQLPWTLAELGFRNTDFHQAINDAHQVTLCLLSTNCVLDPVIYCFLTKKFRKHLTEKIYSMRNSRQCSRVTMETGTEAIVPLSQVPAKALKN
For `CC(C)(C)OC(=O)N1C(C(=O)Nc2cccc(C(=O)c3ccccc3)c2)CSC1c1cccnc1` (stereo not drawn) [Example 2, N-(3-benzoylphenyl) 2-(3-pyridinyl)-3-tert-butoxycarbonyl-4-thiazolidinecarboxamide], the Ki was 100000 nM.
As for `O=C(Nc1cccc(C(=O)c2ccccc2)c1)NC1CSC(c2cccnc2)S1` (stereo not drawn) [Example 17a, N-(3-benzoylphenyl) N'-[2-(3-pyridinyl)dithiolan-4-yl] urea], the figure is 1300 nM; as for `O=C(CC1CSC(c2cccnc2)N1)Nc1cccc(C(=O)c2ccccc2)c1` (stereo not drawn) [Example 13, N-(3-benzoylphenyl) 2-(3-pyridinyl)-thiazolid-4-ylacetamide], 5800 nM.
The figure for `COc1cc(C(=O)c2cccc(NC(=O)NC3CSC(c4cccnc4)S3)c2)cc(OC)c1OC` (stereo not drawn) [Example 18b, N-[3-(3,4,5-trimethoxybenzoyl)phenyl] N'-[2-(3-pyridinyl)dithiolan-4-yl] urea] is 35 nM; for `COc1cc(C(=O)c2cccc(N(C)C(=O)NC3CSC(c4cccnc4)S3)c2)cc(OC)c1OC` (stereo not drawn) [Example 20a, N-methyl-N-[3-(3,4,5-trimethoxybenzoyl)phenyl] N'-[2-(3-pyridinyl)dithiolan-4-yl] urea] it is 260 nM; for `O=CN1C(C(=O)Nc2cccc(C(=O)c3ccccc3)c2)CSC1c1cccnc1` (stereo not drawn) [Example 11, N-(3-benzoylphenyl) 2-(3-pyridinyl)-3-formyl-4-thiazolidinecarboxamide] it is 500 nM.
The figure for `COc1cc(C(=O)c2cccc(NC(=O)NC3CSC(c4cccnc4)S3)c2)cc(OC)c1OC` (stereo not drawn) [Example 18a, N-[3-(3,4,5-trimethoxybenzoyl)phenyl] N'-[2-(3-pyridinyl)dithiolan-4-yl] urea] is 650 nM; for `COc1ccc(C(=O)c2cccc(NC(=O)C3CSC(c4cccnc4)N3)c2)cc1OC` (stereo not drawn) [Example 8, N-[3-(3,4-dimethoxybenzoyl)phenyl] 2-(3-pyridinyl)-4-thiazolidinecarboxamide dihydrochloride] it is 6 nM.
Take `COc1cc(C(=O)c2cccc(NC(=O)C3CSC(c4cccnc4)S3)c2)cc(OC)c1OC` (stereo not drawn) [Example 10, N-[3-(3,4,5-trimethoxybenzoyl)phenyl] 2-(3-pyridinyl)-4-dithiolanecarboxamide]: the Ki is 570 nM.
The figure for `CN(C(=O)NC1CSC(c2cccnc2)S1)c1cccc(C(=O)c2ccccc2)c1` (stereo not drawn) [Example 19a, N-methyl-N-(3-benzoylphenyl) N'-[2-(3-pyridinyl)dithiolan-4-yl] urea] is 2900 nM; for `CNC(=O)N1C(C(=O)Nc2cccc(C(=O)c3ccccc3)c2)CSC1c1cccnc1` (stereo not drawn) [Example 12, N-(3-benzoylphenyl) 2-(3-pyridinyl)-3-(N-methylcarbamoyl)-4-thiazolidinecarboxamide] it is 700 nM; for `COc1cc(C(=O)c2cccc(N(C)C(=O)C3CSC(c4cccnc4)S3)c2)cc(OC)c1OC` (stereo not drawn) [Example 16, N-[3-(3,4,5-trimethoxybenzoyl)phenyl] N-methyl 2-(3-pyridinyl)-4-dithiolanecarboxamide hydrochloride] it is 2600 nM.
The figure for `CN(C(=O)C1CSC(c2cccnc2)N1)c1cccc(C(=O)c2ccccc2)c1` (stereo not drawn) [Example 15, N-(3-benzoylphenyl) N-methyl 2-(3-pyridinyl)-4-thiazolidinecarboxamide dihydrochloride] is 620 nM; for `O=C(Nc1cccc(C(=O)c2ccccc2)c1)NC1CSC(c2cccnc2)S1` (stereo not drawn) [Example 17b, N-(3-benzoylphenyl) N'-[2-(3-pyridinyl)dithiolan-4-yl] urea] it is 260 nM; for `O=C(c1cccc(NC(=O)C2CSC(c3cccnc3)N2)c1)c1ccc2c(c1)OCO2` (stereo not drawn) [Example 6, N-[3-(3,4-methylenedioxybenzoyl)phenyl] 2-(3-pyridinyl)-4-thiazolidinecarboxamide dihydrochloride] it is 33 nM.
As for `O=C(c1ccccc1)c1cccc(NC(=O)C2CCC(c3cccnc3)N2)c1` (stereo not drawn) [Example 21, N-(3-benzoylphenyl)-2-(3-pyridyl)-5-pyrrolidinecarboxamide], the figure is 780 nM; as for `COc1ccc(C(=O)c2cccc(NC(=O)C3CSC(c4cccnc4)N3)c2)cc1` (stereo not drawn) [Example 5, N-[3-(4-methoxybenzoyl)phenyl] 2-(3-pyridinyl)-4-thiazolidinecarboxamide dihydrochloride], 34 nM; as for `NC(=O)N1C(CC(=O)Nc2cccc(C(=O)c3ccccc3)c2)CSC1c1cccnc1` (stereo not drawn) [Example 14, N-(3-benzoylphenyl) 2-(3-pyridinyl)-3-carbamoylthiazolid-4-ylacetamide], 150 nM.
Consider `CN(C(=O)NC1CSC(c2cccnc2)S1)c1cccc(C(=O)c2ccccc2)c1` (stereo not drawn) [Example 19b, N-methyl-N-(3-benzoylphenyl) N'-[2-(3-pyridinyl)dithiolan-4-yl] urea], for which the Ki is 7000 nM.
The figure for `COc1cc(OC)cc(C(=O)c2cccc(NC(=O)C3CSC(c4cccnc4)N3)c2)c1` (stereo not drawn) [Example 7, N-[3-(3,5-dimethoxybenzoyl)phenyl] 2-(3-pyridinyl)-4-thiazolidinecarboxamide dihydrochloride] is 2 nM.
The figure for `COc1cc(C(=O)c2cccc(NC(=O)C3CSC(c4cccnc4)N3)c2)cc(OC)c1OC` (stereo not drawn) [Example 4, N-[3-(3,4,5-trimethoxybenzoyl)phenyl] 2-(3-pyridinyl)-4-thiazolidinecarboxamide dihydrochloride] is 1 nM; for `O=C(c1ccccc1)c1cccc(NC(=O)C2CSC(c3cccnc3)S2)c1` (stereo not drawn) [Example 9, N-(3-benzoylphenyl) 2-(3-pyridinyl)-4-dithiolanecarboxamide] it is 23 nM.
As for `O=C(c1ccccc1)c1cccc(NC(=O)C2CSC(c3cccnc3)N2)c1` (stereo not drawn) [Example 1, N-(3-benzoylphenyl) 2-(3-pyridinyl)-4-thiazolidine carboxamide], the figure is 5 nM; as for `COc1cc(C(=O)c2cccc(N(C)C(=O)NC3CSC(c4cccnc4)S3)c2)cc(OC)c1OC` (stereo not drawn) [Example 20b, N-methyl-N-[3-(3,4,5-trimethoxybenzoyl)phenyl] N'-[2-(3-pyridinyl)dithiolan-4-yl] urea], 2200 nM.
